{"source": "patent US20190117675A1", "about": "“Compositions And Methods To Treat And/Or Prevent Vision Disorders Of The Lens Of The Eye” (Helix Holding Company, priority 2014, published 2019)", "key": {"[1]": {"test_system": "aA-crystallin-Y118D and aB-crystallin-R120G", "assay": "Dissolving of accumulated crystal protein in cells carrying two crystallin mutant plasmids", "format": "cell-based", "details": "10 uM, compared with 1% DMSO solution", "procedure": "FIG. 13. Two mutant crystal proteins were introduced into cells. The accumulated crystal protein were treated by adding different agents.\nCyclopentanoperhy drophenanthrene compounds of the present invention refers to a compound containing cyclopentanoperhy drophenanthrene skeleton structure, including its derivatives. After the two crystal protein mutant plasmid aA-crystallin-Y118D and aB-crystallin-R120G were introduced into cells, we investigated the lanosterol and its derivatives as well as cholesterol (Cholesterol) for their effects on intracellular accumulation of crystal protein. Not all cyclopentanoperhy drophenanthrene compound have the same effect."}, "[2]": {"test_system": "various cataract-causing crystallin mutants", "assay": "Aggresome / intracellular aggregate formation of crystallin mutants in transfected cells (confocal microscopy)", "format": "cell-based", "details": "0-40 μM sterols in 2% DMSO, 2 h treatment then 12 h culture; lanosterol effect dose-dependent", "procedure": "The effect of lanosterol or cholesterol on the aggresome formation of various crystallins was studied by transfecting the cells using plasmids containing various crystallin genes. The cells were cultivated for 24 h to enable efficient protein expression and aggresome formation. Then the cells were treated with 0-40 μM sterols in 2% DMSO. The cells treated with 2% DMSO were used as the control. After treatment for 2 h, the cells were moved to fresh DMEM medium containing 10% fetal bovine serum and further cultivated for 12 h. Then the cells were used for microscopy analysis.\nThe microscopy samples were prepared by washing the slips by phosphate buffered saline (PBS) three times. The cells were fixed with 4% paraformaldehyde for 40 min followed by three times washing with PBS. The cells were permeabilized with 0.1% Triton X-100 (Sigma) in PBS for 10 min and blocked with 5% normal goat serum in PBS for 1 h at 37° C. Immunostaining was carried out by adding mouse anti-Flag antibody (1:500) or anti-p62 antibody (1:200) in PBS buffer containing 5% normal goat serum and cultivated for 1 h at 37° C. Then the slips were washed three times with PBS, and further incubated with Alexa 649-conjugated goat anti-mouse IgG (1:250) for 1 h at ambient temperature. The nuclei were counterstained with Hoechst 33342. The mounted cells were analyzed using a Carl Zeiss LSM 710 confocal microscope."}, "[3]": {"target": "T1, αB-crystallin R120G mutant (Homo sapiens, UniProt P02511, R120G)", "T1 construct": "made in house", "T1 sequence (P02511 1-175 R120G)": "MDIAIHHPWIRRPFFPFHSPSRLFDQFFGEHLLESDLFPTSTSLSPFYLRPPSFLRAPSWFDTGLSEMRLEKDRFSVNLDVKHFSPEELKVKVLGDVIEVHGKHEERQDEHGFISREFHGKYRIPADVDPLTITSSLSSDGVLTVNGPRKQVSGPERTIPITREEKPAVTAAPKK", "assay": "Negative-stain EM of aggregates treated with sterol in liposome", "format": "biochemical", "details": "negatively stained EM", "procedure": "Representative negatively stained EM pictures of the aggregates of αB-crystallin R120G mutant treated by liposome, lanosterol in liposome and cholesterol in liposome, respectively. The EM samples were stained by 1.25% uranyl acetate.\nQuantitative analysis was performed by calculating the number of particles with length over 50 nm from six randomly picked viewing field. Each viewing field contained 30-50 particles.\nThe aggregates of the WT and mutated αA- and αB-crystallin proteins were obtained by heating the proteins solutions containing 1 M guanidine chloride (ultrapure, Sigma) with a concentration of 5 mg/ml at 60° C. for 48 h. The aggregates of the WT and mutated β- and γ-crystallins were prepared by heating the protein solutions at pH 3 and 37° C. for 48 h. The formation of aggregates was confirmed by turbidity (absorbance at 400 nm) and transmission electron microscope (EM) measurements. The preformed aggregates were resuspended in 20 mM PBS with a final concentration of 0.1 mg/ml (approximately 5 μM). The resuspended aggregates were treated by 50 μM lanosterol or cholesterol in liposomes formed by 50 μM DPPS at 37° C. […] The soluble proteins were determined by centrifuge the protein solutions to separate the supernatant and precipitation fractions. Then the protein concentration in the supernatant was determined by the Bradford method. […]"}, "[4]": {"test_system": "aggregates of various WT and mutated crystallins", "assay": "In vitro protein assay: dissociation of preformed crystallin aggregates (turbidity, soluble protein, EM)", "format": "biochemical", "details": "37° C.", "procedure": "Evaluation of the effect of lanosterol on the dissolution of crystallin aggregates by turbidity. Crystallin aggregates were formed by incubating 5mgml21 protein solution at 60° C. for 2 h (α-crystallins) or 37° C. for 48 h (β- and γ-crystallins) in the presence of 1M guanidine chloride. The preformed aggregates were re-suspended in PBS at a final protein concentration of 0.2 mg/ml and were treated with 500 μM sterols in 500 μM DPPC liposome and incubated at 37° C. for 24 h. Aggregates treated with 500 μM DPPC liposome only were used as the controls.\nThe α-crystallin aggregates were formed by incubating 5 mg/ml protein solutions at 60° C. for 48 h in the presence of 1 M guanidine chloride. The β- and γ-crystallin aggregates were prepared by incubating the protein solutions at 37° C. and pH 3 for 48 h. The preformed aggregates were re-suspended in PBS with a final protein concentration of 0.1 mg/ml. The re-suspended aggregates were treated by 50 μM sterols in 50 μM DPPS liposome and incubated at 37° C. for 144 h. The aggregates treated by 50 μM DPPS liposome were used as the controls. The supernatant and precipitation fractions were separated by centrifugation. The protein concentrations in the supernatant fraction were determined by absorbance at 280 nm and the percentages of the soluble proteins were calculated from three independent repetitions.\nThe recombinant his-tagged WT and mutated β- and γ-crystallin proteins were overexpressed in E. coli Rosetta and purified by Ni-NTA affinity column followed by gel filtration chromatography using the same protocol as those described elsewhere 13,14,16,18. The overexpression and purification of the non-tagged αA- and αB-crystallins were performed as described previously 19. The purity of the proteins were estimated to be above 95% as evaluated by one homogeneous band on 12.5% SDS-PAGE, 10% native-PAGE and a single peak in the size-exclusion chromatographyprofile. The protein concentration was determined according to the Bradford method by using BSA as the standard 20. All protein samples were prepared in 20 mM PBS buffer containing 150 mM NaCl, 1 mM EDTA and 1 mM DTT.\nThe aggregates of the WT and mutated αA- and αB-crystallin proteins were obtained by heating the proteins solutions containing 1 M guanidine chloride (ultrapure, Sigma) with a concentration of 5 mg/ml at 60° C. for 48 h. The aggregates of the WT and mutated β- and γ-crystallins were prepared by heating the protein solutions at pH 3 and 37° C. for 48 h. The formation of aggregates was confirmed by turbidity (absorbance at 400 nm) and transmission electron microscope (EM) measurements. The preformed aggregates were resuspended in 20 mM PBS with a final concentration of 0.1 mg/ml (approximately 5 μM). The resuspended aggregates were treated by 50 μM lanosterol or cholesterol in liposomes formed by 50 μM DPPS at 37° C. After 72 h treatment, the protein solutions were used for negative-stained EM observations. After 144 h incubation, the protein solutions were used for turbidity measurements and determinations of protein concentrations in the soluble fractions. The soluble proteins were determined by centrifuge the protein solutions to separate the supernatant and precipitation fractions. Then the protein concentration in the supernatant was determined by the Bradford method. The EM samples were prepared by depositing the protein solutions onto a freshly glow-discharged carbon coated copper grid. […]"}}, "note": "Entries after “also recorded” stand apart in the source; their conditions may differ."}
{"smiles": "CC(C)CCC[C@@H](C)[C@H]1CC[C@H]2C3=CC[C@H]4C[C@@H](O)CC[C@]4(C)[C@H]3CC[C@]12C", "note": "[5α-cholest-7-en-3β-ol]", "values": [{"measurement": "dissolving of accumulated crystal protein", "setting": "[1]", "value": "significant dissolving of the accumulated crystal protein"}, {"measurement": "dissolving of accumulated crystal protein", "setting": "[1]; listed as 5a-cholest-7-en-3β-ol", "value": "significantly dissolve accumulated crystals protein"}]}
{"smiles": "CC(C)=CCC[C@@H](C)[C@H]1CC[C@H]2C3=C(CC[C@]12C)[C@@]1(C)CC[C@H](O)C[C@@H]1CC3", "note": "[Zymosterol, 5α-Cholesta-8,24-dien-3β-ol]", "values": [{"measurement": "dissolving of accumulated crystal protein", "setting": "[1]", "value": "significant dissolving of the accumulated crystal protein"}, {"measurement": "dissolving of accumulated crystal protein", "setting": "[1]; listed as zymosterol", "value": "significantly dissolve accumulated crystals protein"}]}
{"smiles": "CC(C)CCC[C@@H](C)[C@H]1CC[C@H]2[C@@H]3CC[C@H]4C[C@@H](O)CC[C@]4(C)[C@H]3CC[C@]12C", "note": "[β-cholestanol]", "values": [{"measurement": "dissolving of accumulated crystal protein", "setting": "[1]", "value": "significantly dissolve accumulated crystals protein; also recorded: significant dissolving of the accumulated crystal protein"}]}
{"smiles": "CC(C)CCC[C@@H](C)[C@H]1CC[C@H]2[C@@H]3CC=C4C[C@@H](O)CC[C@]4(C)[C@H]3CC[C@]12C", "note": "[Cholesterol, reference compound]", "values": [{"measurement": "intracellular aggregation of various cataract-causing crystallin mutants", "setting": "[2]", "value": "did not affect the formation of intracellular aggregates"}, {"measurement": "dissociation of aggregates formed by αB-crystallin R120G mutant (number of particles with length over 50 nm)", "setting": "[3]", "value": "not"}, {"measurement": "dissolution of crystallin aggregates by turbidity", "setting": "[4]; 500 μM sterols in 500 μM DPPC liposome, 24 h, 0.2 mg/ml protein", "value": "could not"}, {"measurement": "dissociation of aggregates of various WT and mutated crystallins", "setting": "[4]; in vitro protein assay, 50 μM sterol in 50 μM DPPS liposome", "value": "could not and not"}, {"measurement": "dissolving of accumulated crystal protein", "setting": "[1]", "value": "cannot effectively dissolve"}]}
{"smiles": "CC(C)=CCC[C@@H](C)[C@H]1CC[C@@]2(C)[C@@H]3CC[C@H]4C(C)(C)[C@@H](O)CC[C@]4(C)C3=CC[C@]12C", "note": "[Parkeol]", "values": [{"measurement": "dissolving of accumulated crystal protein", "setting": "[1]", "value": "significant dissolving of the accumulated crystal protein"}, {"measurement": "dissolving of accumulated crystal protein", "setting": "[1]; listed as parkeol", "value": "significantly dissolve accumulated crystals protein"}]}
{"smiles": "CC(C)[C@@H](C)/C=C/[C@@H](C)[C@H]1CC[C@H]2C3=CC=C4C[C@@H](O)CC[C@]4(C)[C@H]3CC[C@]12C", "note": "[ergosterol]", "values": [{"measurement": "dissolving of accumulated crystal protein", "setting": "[1]", "value": "significantly dissolve accumulated crystals protein; also recorded: significant dissolving of the accumulated crystal protein"}]}
